≈ marks a conversion by molar mass, not a printed value. Where “and” joins values, the source holds several entries; their conditions need not be identical. Equal entries are not always repeated. Each block holds one molecule with its values, some of them ahead of it.
Legend:
Experiment in all cases: ≥ marks a high value that may be exact or a test limit, other limits are often not marked, values filed in µg/mL are converted to µM
[1] = system: Pseudomonas aeruginosa ATCC 27853
[2] = system: Pseudomonas aeruginosa PAO1
[3] = system: Staphylococcus aureus ATCC 25923
[4] = system: Staphylococcus aureus ATCC 43300
[5] = system: Pseudomonas aeruginosa ATCC 9027
[6] = system: Staphylococcus aureus ATCC 6538
Bacillus subtilis = system: Bacillus subtilis
[7] = system: Candida albicans ATCC 2002
[8] = system: Escherichia coli ATCC 25922
[9] = system: Bacillus subtilis ATCC 6633
Candida albicans = system: Candida albicans
Escherichia coli = system: Escherichia coli
Staphylococcus aureus = system: Staphylococcus aureus

- MIC [1]: 11.9 µM (≈ 25 µg/mL)
- MIC [2]: 11.9 µM (≈ 25 µg/mL)
- MIC [3]: 23.8 µM (≈ 50 µg/mL)
- MIC [4]: 23.8 µM (≈ 50 µg/mL)
Compound: CC[C@H](C)[C@H](NC(=O)[C@H](CCCCN)NC(=O)[C@H](Cc1cnc[nH]1)NC(=O)[C@H](CC(N)=O)NC(=O)[C@H](Cc1c[nH]c2ccccc12)NC(=O)CNC(=O)[C@H](C)NC(=O)[C@H](CO)NC(=O)[C@@H](NC(=O)[C@@H](NC(=O)[C@@H](N)CS)C(C)C)[C@@H](C)CC)C(=O)N[C@@H](CCCN=C(N)N)C(=O)N[C@H]1CSSC[C@@H](C(=O)O)NC(=O)[C@H](CC(N)=O)NC(=O)CNC(=O)[C@H]([C@@H](C)O)NC(=O)[C@H](CC(C)C)NC(=O)[C@H](CCCCN)NC1=O [CVISAGWNHKIRCKLTGNC]

- MIC (Bacillus subtilis): 0.919 µM (≈ 2.34 µg/mL)
- MIC [7]: 0.919 µM (≈ 2.34 µg/mL)
- MIC [3]: 0.459 µM (≈ 1.17 µg/mL)
- MIC [4]: 3.68 µM (≈ 9.37 µg/mL)
Compound: CC[C@H](C)[C@H](NC(=O)CNC(=O)[C@H](C)NC(=O)[C@H](C)NC(=O)[C@@H](NC(=O)[C@H](CCCCN)NC(=O)[C@H](CC(C)C)NC(=O)[C@@H](NC(=O)[C@@H]1CCCN1C(=O)CNC(=O)[C@@H](NC(=O)[C@@H](N)Cc1ccccc1)C(C)C)C(C)C)[C@@H](C)CC)C(=O)N[C@@H](CC(C)C)C(=O)N1CCC[C@H]1C(=O)N[C@H](C(=O)N[C@@H](C)C(=O)N[C@H](C(=O)N[C@H]1CSSC[C@@H](C(=O)O)NC(=O)[C@H](CCCCN)NC(=O)[C@H](CCCCN)NC(=O)[C@H](Cc2ccc(O)cc2)NC(=O)[C@H]([C@@H](C)CC)NC(=O)[C@H](CCCCN)NC1=O)[C@@H](C)CC)[C@@H](C)O [FVGPVLKIAAGILPTAICKIYKKC]

- MIC [8]: 35 µM (≈ 50.3 µg/mL)
- MIC [2]: 66 µM (≈ 94.9 µg/mL)
- MIC [3]: 10 µM (≈ 14.4 µg/mL)
Compound: CC(C)C[C@H](NC(=O)CN)C(=O)N[C@@H](CC(C)C)C(=O)N[C@@H](CC(=O)O)C(=O)N[C@@H](CC(C)C)C(=O)N[C@@H](CC(C)C)C(=O)N[C@@H](CCCCN)C(=O)N[C@@H](CC(C)C)C(=O)N[C@@H](CC(C)C)C(=O)N[C@@H](CC(C)C)C(=O)N[C@@H](CCCCN)C(=O)N[C@@H](C)C(=O)N[C@@H](C)C(=O)NCC(=O)O [GLLDLLKLLLKAAG]

- MIC [9]: ≥ 85.2 µM
- MIC [8]: 5.33 µM (≈ 8 µg/mL)
- MIC [1]: 42.6 µM (≈ 64 µg/mL)
- MIC [3]: 85.2 µM (≈ 128 µg/mL)
Compound: CC(C)C[C@H](NC(=O)CNC(=O)[C@H](C)NC(=O)[C@@H](NC(=O)[C@H](CC(N)=O)NC(=O)[C@H](CO)NC(=O)[C@H](CC(C)C)NC(=O)[C@@H](N)CC(C)C)C(C)C)C(=O)N[C@@H](CC(C)C)C(=O)N[C@@H](CCCCN)C(=O)N[C@@H](CCC(N)=O)C(=O)N[C@@H](Cc1ccccc1)C(=O)N[C@@H](C)C(=O)N[C@@H](CCCCN)C(=O)O [LLSNVAGLLKQFAK]

- MIC (Candida albicans): 40 µM (≈ 106 µg/mL)
- MIC (Escherichia coli): 10 µM (≈ 26.5 µg/mL)
- MIC (Staphylococcus aureus): 40 µM (≈ 106 µg/mL)
Compound: CC[C@H](C)[C@H](NC(=O)[C@H](CCCCN)NC(=O)[C@H](CS)NC(=O)[C@H](C)NC(=O)[C@@H](NC(=O)[C@H](Cc1ccccc1)NC(=O)CNC(=O)[C@H](CC(C)C)NC(=O)CNC(=O)[C@@H](NC(=O)[C@H](CCCCN)NC(=O)CNC(=O)[C@H](CC(C)C)NC(=O)[C@H](CC(N)=O)NC(=O)[C@H](CCCCN)NC(=O)[C@H](CC(C)C)NC(=O)[C@@H](NC(=O)[C@H](CO)NC(=O)[C@H](CC(C)C)NC(=O)[C@H](CCSC)NC(=O)[C@@H](N)CO)C(C)C)C(C)C)C(C)C)C(=O)N[C@@H](CC(N)=O)C(=O)N[C@@H](CCCCN)C(=O)N[C@@H](CCCCN)C(=O)N[C@@H](CS)C(=O)O [SMLSVLKNLGKVGLGFVACKINKKC]

- MIC (Candida albicans): 20 µM (≈ 54.2 µg/mL)
- MIC (Escherichia coli): 10 µM (≈ 27.1 µg/mL)
- MIC (Staphylococcus aureus): 20 µM (≈ 54.2 µg/mL)
Compound: CC[C@H](C)[C@H](NC(=O)[C@H](CCCCN)NC(=O)[C@H](CS)NC(=O)[C@H](CCCCN)NC(=O)[C@@H](NC(=O)[C@H](Cc1ccccc1)NC(=O)CNC(=O)[C@H](CC(C)C)NC(=O)CNC(=O)[C@@H](NC(=O)[C@H](CCCCN)NC(=O)CNC(=O)[C@H](CC(C)C)NC(=O)[C@H](CC(N)=O)NC(=O)[C@H](CCCCN)NC(=O)[C@H](CC(C)C)NC(=O)[C@@H](NC(=O)[C@H](CO)NC(=O)[C@H](CC(C)C)NC(=O)[C@H](CCSC)NC(=O)[C@@H](N)CO)C(C)C)C(C)C)C(C)C)C(=O)N[C@@H](CC(N)=O)C(=O)N[C@@H](CCCCN)C(=O)N[C@@H](CCC(N)=O)C(=O)N[C@@H](CS)C(=O)O [SMLSVLKNLGKVGLGFVKCKINKQC]

Continued, molecule first:

Compound: CC(C)C[C@H](NC(=O)[C@H](C)NC(=O)[C@H](CCCCN)NC(=O)[C@H](CCCCN)NC(=O)[C@H](CC(C)C)NC(=O)[C@H](Cc1ccccc1)NC(=O)[C@H](CCCCN)NC(=O)[C@H](C)NC(=O)[C@H](CC(C)C)NC(=O)[C@H](Cc1ccccc1)NC(=O)[C@H](CCCCN)NC(=O)[C@H](C)NC(=O)[C@@H](N)Cc1ccccc1)C(N)=O [FAKFLAKFLKKAL]
- MIC [5]: 65.6 µM (≈ 99.9 µg/mL)
- MIC [6]: 3.28 µM (≈ 5 µg/mL)

Compound: CC[C@H](C)[C@H](NC(=O)[C@H](CC(C)C)NC(=O)[C@H](CCCCN)NC(=O)[C@H](CCCCN)NC(=O)[C@H](C)NC(=O)[C@H](CC(C)C)NC(=O)[C@H](CCCCN)NC(=O)[C@H](CCCCN)NC(=O)[C@H](CC(C)C)NC(=O)[C@H](CCCCN)NC(=O)[C@H](CCCCN)NC(=O)[C@H](C)NC(=O)[C@H](CC(C)C)NC(=O)[C@H](CCCCN)NC(=O)[C@H](CCCCN)NC(=O)[C@H](C)NC(=O)[C@@H](N)Cc1ccccc1)C(=O)NCC(=O)N[C@@H](C)C(=O)N[C@H](C(=O)N[C@@H](CC(C)C)C(=O)N[C@@H](CCCCN)C(=O)N[C@H](C(=O)O)C(C)C)C(C)C [FAKKLAKKLKKLAKKLIGAVLKV]
- MIC [5]: > 78.8 µM
- MIC [6]: 39.4 µM (≈ 100 µg/mL)

Compound: CC(C)C[C@H](NC(=O)[C@H](C)NC(=O)[C@H](CCCCN)NC(=O)[C@H](CCCCN)NC(=O)[C@H](CC(C)C)NC(=O)[C@H](C)NC(=O)[C@H](CCCCN)NC(=O)[C@H](C)NC(=O)[C@H](CC(C)C)NC(=O)[C@H](CC(C)C)NC(=O)[C@H](CCCCN)NC(=O)[C@H](C)NC(=O)[C@@H](N)Cc1ccccc1)C(N)=O [FAKLLAKALKKAL]
- MIC [5]: 7.07 µM (≈ 9.99 µg/mL)
- MIC [6]: 3.53 µM (≈ 5 µg/mL)

Compound: CC(C)C[C@H](NC(=O)[C@H](CCCCN)NC(=O)[C@H](CCCCN)NC(=O)[C@H](C)NC(=O)[C@H](CC(C)C)NC(=O)[C@H](CCCCN)NC(=O)[C@H](C)NC(=O)[C@H](Cc1c[nH]c2ccccc12)NC(=O)[C@H](CC(C)C)NC(=O)[C@H](CCCCN)NC(=O)[C@H](C)NC(=O)[C@@H](N)Cc1ccccc1)C(N)=O [FAKLWAKLAKKL]
- MIC [5]: 35.3 µM (≈ 50 µg/mL)
- MIC [6]: 70.6 µM (≈ 99.9 µg/mL)

Compound: CC(C)C[C@@H]1NC(=O)CNC(=O)[C@H]([C@@H](C)O)NC(=O)[C@@H]2CCCN2C(=O)[C@H](CC(C)C)NC(=O)CNC(=O)[C@H](CC(N)=O)NC(=O)[C@H](CC(N)=O)NC(=O)[C@H](Cc2ccc(O)cc2)NC(=O)[C@H](C(C)C)NC(=O)[C@H](CCCN=C(N)N)NC(=O)[C@@H](NC(=O)[C@H](CCCN=C(N)N)NC(=O)[C@H](Cc2cnc[nH]2)NC(=O)[C@H](CCCCN)NC(=O)[C@H](CCCCN)NC(=O)[C@H](CCCN=C(N)N)NC(=O)[C@@H](N)CCCCN)CSSC[C@@H](C(N)=O)NC(=O)[C@H](Cc2c[nH]c3ccccc23)NC(=O)[C@H](CCCN=C(N)N)NC(=O)[C@H](Cc2ccc(O)cc2)NC1=O [KRKKHRCRVYNNGLPTGLYRWC]
- MIC [6]: 1.1 µM (≈ 3.02 µg/mL)

Compound: CC(C)C[C@H](NC(=O)[C@H](C)NC(=O)[C@H](Cc1c[nH]c2ccccc12)NC(=O)CNC(=O)[C@H](CCCN=C(N)N)NC(=O)[C@@H](N)CCCN=C(N)N)C(=O)N[C@@H](CCCN=C(N)N)C(=O)N[C@@H](CC(C)C)C(=O)N[C@H](C(=O)N[C@@H](CC(C)C)C(=O)N[C@@H](C)C(=O)N[C@@H](Cc1ccc(O)cc1)C(N)=O)C(C)C [RRGWALRLVLAY]
- MIC [2]: 26 µM and 30 µM

From DBAASP
